Experimental data taken from PMC11143257, “Atomistic mechanism of coupling between cytosolic sensor domain and selectivity filter in TREK K2P channels” (Nature Communications, 2024).
“Also recorded” adds a separate entry of the source. Where a name gives a salt, the structure may show the parent alone.

What was measured:
TREK-2* [1] = target: T1, TREK-2* (Homo sapiens, UniProt P57789); assay: NFx inhibition, inside-out patch-clamp; format: cell-based; set-up: was truncated from WT and includes amino acids 67 - 355; expressed in transfected cells; host or cells: Xenopus laevis oocytes (cRNA injection, pFAW vector); conditions: TREK-2* (amino acids 67 - 355), peer review file
T1 sequence (P57789 67-355 isoform P57789-4): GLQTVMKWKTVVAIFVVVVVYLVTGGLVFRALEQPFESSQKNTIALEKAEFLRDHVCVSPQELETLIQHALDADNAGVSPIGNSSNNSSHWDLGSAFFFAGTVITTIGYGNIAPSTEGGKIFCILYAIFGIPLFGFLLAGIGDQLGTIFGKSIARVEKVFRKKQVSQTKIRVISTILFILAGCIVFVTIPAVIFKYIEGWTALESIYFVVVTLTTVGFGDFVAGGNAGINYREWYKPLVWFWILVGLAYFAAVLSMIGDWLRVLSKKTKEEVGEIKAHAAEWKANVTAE
Text: In this study, the coding sequences of human K2P2.1 TREK-1 (Genbank accession number: NM_172042), rat K2P2.1 TREK-1 (NM_172041.2), human K2P10.1 TREK-2 (NM_021161) and human K2P4.1 TRAAK (AF247042) were used. For K^+ channel constructs expressed in Xenopus laevis oocytes the respective K^+ channel subtype coding sequences were subcloned into the dual-purpose vector pFAW. The TREK-2 construct with the extended pCt (TREK-2^*) was truncated from WT and includes amino acids 67 - 355. All mutant channels (point mutations) were obtained by site-directed mutagenesis with custom oligonucleotides. Vector DNA was linearized with NheI or MluI and cRNA synthesized in vitro using the SP6 or T7 AmpliCap Max High Yield Message Maker Kit (Cellscript, USA) and stored at −20 °C (for frequent use) and −80 °C (for long term storage).
(§1) Xenopus laevis oocytes were surgically removed from anesthetized adult females, treated with type II collagenase (Sigma-Aldrich/Merck, Germany) and manually defolliculated. […] Currents were recorded with an EPC10 amplifier (HEKA electronics, Germany) and sampled at 10 kHz or higher and filtered with 3 kHz (-3 dB) or higher as appropriate for the sampling rate. […]

WT TREK-1 = assay: MTS probe modification, inside-out patch-clamp; format: cell-based, human; conditions: 100 µM decyl-MTS for at least 30 s, excised patches, symmetric K+, pH 7.4, +40 mV
Description: First, we measured WT TREK-1, WT TRAAK and TREK-2^* channels without modifiable cysteine residues as references. […] Note, that patch integrity and channel regulation were tested with either 1 mM tetra-pentyl-ammonium (TPenA) and a short pHi activation step. Next, we conducted systematic cysteine scanning mutagenesis of the entire pCt and examined the effect of charged and aliphatic MTS probes.
as §1
The fold current increase (fold activation) of a ligand (decyl-MTS) was calculated from the following equation:1 FoldactivationFA=Iactivated/Ibasal with Iactivated represents the stable current level in the presence of 100 µM decyl-MTS and Ibasal the measured current before application of the MTS probe.

TREK-2* [2] = target: T1, TREK-2*; assay: MTS probe modification, inside-out patch-clamp; format: cell-based; set-up: was truncated from WT and includes amino acids 67 - 355; expressed in transfected cells; host or cells: Xenopus laevis oocytes (cRNA injection), excised inside-out patches; conditions: 100 µM decyl-MTS for at least 30 s, symmetrical K+, pH 7.4, +40 mV
Description: First, we measured WT TREK-1, WT TRAAK and TREK-2^* channels without modifiable cysteine residues as references. Upon application of 100 µM of decyl-MTS for at least 30 s to the respective channel in excised membrane patches, no change in current amplitudes was recognized (Fig. 2a and Supplementary Fig. 2a, b). Note, that patch integrity and channel regulation were tested with either 1 mM tetra-pentyl-ammonium (TPenA) and a short pHi activation step. Next, we conducted systematic cysteine scanning mutagenesis of the entire pCt and examined the effect of charged and aliphatic MTS probes. […] Remarkably, all hit residues face toward the inner leaflet of the lipid bilayer (Fig. 2b, inlay).
In this study, the coding sequences of human K2P2.1 TREK-1 (Genbank accession number: NM_172042), rat K2P2.1 TREK-1 (NM_172041.2), human K2P10.1 TREK-2 (NM_021161) and human K2P4.1 TRAAK (AF247042) were used. […]
as §1

Row | Compound | IC50 (TREK-2* [1]) [µM] | effect on current amplitude (WT TREK-1) | effect on current amplitude (TREK-2* [2])
1 | NCCC(Oc1ccc(C(F)(F)F)cc1)c1ccccc1 (stereo not drawn) [NFx, Norfluoxetine hydrochloride] | 3.2 ± 1 | – | –
2 | CCCCCCCCCCSS(C)(=O)=O [decyl-MTS, Decyl-MethaneThioSulfonate] | – | no change | no change; also recorded: no effect
